#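 Where inhibition never reached the appropriate level, the endpoint shown equals the highest concentration tested. Otherwise, values were interpolated linearly from a five-concentration, 48-hour dose response in 96-well plates. GI50 is the concentration that inhibits growth by half. TGI: total growth inhibition.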
# How the values were obtained:
# Experiment in all cases: NCI-60 cell line screen, 48 h
# ACHN renal = test system: ACHN renal
# A498 renal = test system: A498 renal
# HCC-2998 colon = test system: HCC-2998 colon
# LOX IMVI melanoma = test system: LOX IMVI melanoma
# NCI-H460 lung = test system: NCI-H460 lung
# DU-145 prostate = test system: DU-145 prostate
# OVCAR-4 ovarian = test system: OVCAR-4 ovarian
# RPMI-8226 leukemia = test system: RPMI-8226 leukemia
# U251 CNS = test system: U251 CNS
# KM12 colon = test system: KM12 colon
# HCT-15 colon = test system: HCT-15 colon
# UACC-257 melanoma = test system: UACC-257 melanoma
# HS 578T breast = test system: HS 578T breast
# NCI/ADR-RES ovarian = test system: NCI/ADR-RES ovarian
# OVCAR-3 ovarian = test system: OVCAR-3 ovarian
# RXF 393 renal = test system: RXF 393 renal
# NCI-H226 lung = test system: NCI-H226 lung
# NCI-H522 lung = test system: NCI-H522 lung
# SF-539 CNS = test system: SF-539 CNS
# CCRF-CEM leukemia = test system: CCRF-CEM leukemia
# COLO 205 colon = test system: COLO 205 colon
# UACC-62 melanoma = test system: UACC-62 melanoma
# UO-31 renal = test system: UO-31 renal
# SW-620 colon = test system: SW-620 colon
# HCT-116 colon = test system: HCT-116 colon
# K-562 leukemia = test system: K-562 leukemia
# SNB-19 CNS = test system: SNB-19 CNS
# SK-MEL-5 melanoma = test system: SK-MEL-5 melanoma
# PC-3 prostate = test system: PC-3 prostate
# TK-10 renal = test system: TK-10 renal
# SNB-75 CNS = test system: SNB-75 CNS
# M14 melanoma = test system: M14 melanoma
# OVCAR-5 ovarian = test system: OVCAR-5 ovarian
# SF-268 CNS = test system: SF-268 CNS
# MDA-MB-231 breast = test system: MDA-MB-231 breast
# SK-MEL-28 melanoma = test system: SK-MEL-28 melanoma
# IGROV1 ovarian = test system: IGROV1 ovarian
# A549 NSCLC = test system: A549 NSCLC
# HL-60(TB) leukemia = test system: HL-60(TB) leukemia
# SR leukemia = test system: SR leukemia
# MALME-3M melanoma = test system: MALME-3M melanoma
# SF-295 CNS = test system: SF-295 CNS
# CAKI-1 renal = test system: CAKI-1 renal
# SK-OV-3 ovarian = test system: SK-OV-3 ovarian
# HOP-92 NSCLC = test system: HOP-92 NSCLC
# HOP-62 NSCLC = test system: HOP-62 NSCLC
# MOLT-4 leukemia = test system: MOLT-4 leukemia
# NCI-H23 lung = test system: NCI-H23 lung
# MCF7 breast = test system: MCF7 breast
# SN12C renal = test system: SN12C renal
# HT29 colon = test system: HT29 colon
# BT-549 breast = test system: BT-549 breast
# OVCAR-8 ovarian = test system: OVCAR-8 ovarian
# MDA-MB-435 = test system: MDA-MB-435
# T-47D breast = test system: T-47D breast
# SK-MEL-2 melanoma = test system: SK-MEL-2 melanoma
smiles,measurement,setting,value
Cc1ccc2c(n1)C(=O)C(Cl)=C(Nc1ccc(C)c(C)c1)C2=O,GI50,ACHN renal,1.68 µM
same,TGI,ACHN renal,3.13 µM
same,GI50,A498 renal,10.6 µM
same,TGI,A498 renal,25.3 µM
same,GI50,HCC-2998 colon,2.12 µM
same,TGI,HCC-2998 colon,4.69 µM
same,GI50,LOX IMVI melanoma,0.726 µM
same,TGI,LOX IMVI melanoma,3.42 µM
same,GI50,NCI-H460 lung,2.07 µM
same,TGI,NCI-H460 lung,12 µM
same,GI50,DU-145 prostate,1.72 µM
same,TGI,DU-145 prostate,3.42 µM
same,GI50,OVCAR-4 ovarian,1.36 µM
same,TGI,OVCAR-4 ovarian,2.81 µM
same,GI50,RPMI-8226 leukemia,1.54 µM
same,TGI,RPMI-8226 leukemia,4.7 µM
same,GI50,U251 CNS,1.48 µM
same,TGI,U251 CNS,2.96 µM
same,GI50,KM12 colon,2.96 µM
same,TGI,KM12 colon,> 100 µM
same,GI50,HCT-15 colon,1.12 µM
same,TGI,HCT-15 colon,2.88 µM
same,GI50,UACC-257 melanoma,1.56 µM
same,TGI,UACC-257 melanoma,2.98 µM
same,GI50,HS 578T breast,2.26 µM
same,TGI,HS 578T breast,6.47 µM
same,GI50,NCI/ADR-RES ovarian,2.21 µM
same,TGI,NCI/ADR-RES ovarian,8.26 µM
same,GI50,OVCAR-3 ovarian,0.59 µM
same,TGI,OVCAR-3 ovarian,1.89 µM
same,GI50,RXF 393 renal,1.5 µM
same,TGI,RXF 393 renal,2.85 µM
same,GI50,NCI-H226 lung,1.72 µM
same,TGI,NCI-H226 lung,5.92 µM
same,GI50,NCI-H522 lung,2 µM
same,TGI,NCI-H522 lung,4.9 µM
same,GI50,SF-539 CNS,1.77 µM
same,TGI,SF-539 CNS,3.23 µM
same,GI50,CCRF-CEM leukemia,2.46 µM
same,TGI,CCRF-CEM leukemia,6.72 µM
same,GI50,COLO 205 colon,17.2 µM
same,TGI,COLO 205 colon,44.3 µM
same,GI50,UACC-62 melanoma,1.78 µM
same,TGI,UACC-62 melanoma,4.36 µM
same,GI50,UO-31 renal,1.31 µM
same,TGI,UO-31 renal,2.71 µM
same,GI50,SW-620 colon,2.07 µM
same,TGI,SW-620 colon,4.51 µM
same,GI50,HCT-116 colon,1.15 µM
same,TGI,HCT-116 colon,2.64 µM
same,GI50,K-562 leukemia,2.04 µM
same,TGI,K-562 leukemia,> 100 µM
same,GI50,SNB-19 CNS,1.59 µM
same,TGI,SNB-19 CNS,4.07 µM
same,GI50,SK-MEL-5 melanoma,1.38 µM
same,TGI,SK-MEL-5 melanoma,2.74 µM
same,GI50,PC-3 prostate,1.69 µM
same,TGI,PC-3 prostate,12.7 µM
same,GI50,TK-10 renal,7.48 µM
same,TGI,TK-10 renal,19.7 µM
same,GI50,SNB-75 CNS,1.73 µM
same,TGI,SNB-75 CNS,3.87 µM
same,GI50,M14 melanoma,1.46 µM
same,TGI,M14 melanoma,2.96 µM
same,GI50,OVCAR-5 ovarian,2.23 µM
same,TGI,OVCAR-5 ovarian,4.37 µM
same,GI50,SF-268 CNS,2.2 µM
same,TGI,SF-268 CNS,6.51 µM
same,GI50,MDA-MB-231 breast,1.62 µM
same,TGI,MDA-MB-231 breast,3.81 µM
same,GI50,SK-MEL-28 melanoma,2.07 µM
same,TGI,SK-MEL-28 melanoma,4.28 µM
same,GI50,IGROV1 ovarian,1.85 µM
same,TGI,IGROV1 ovarian,4.1 µM
same,GI50,A549 NSCLC,3.37 µM
same,TGI,A549 NSCLC,17.3 µM
same,GI50,HL-60(TB) leukemia,2.27 µM
same,TGI,HL-60(TB) leukemia,5.7 µM
same,GI50,SR leukemia,1.53 µM
same,TGI,SR leukemia,5.75 µM
same,GI50,MALME-3M melanoma,2.13 µM
same,TGI,MALME-3M melanoma,4.22 µM
same,GI50,SF-295 CNS,1.74 µM
same,TGI,SF-295 CNS,3.51 µM
same,GI50,CAKI-1 renal,1.59 µM
same,TGI,CAKI-1 renal,3.16 µM
same,GI50,SK-OV-3 ovarian,22 µM
same,TGI,SK-OV-3 ovarian,> 100 µM
same,GI50,HOP-92 NSCLC,1.98 µM
same,TGI,HOP-92 NSCLC,4.1 µM
same,GI50,HOP-62 NSCLC,2.49 µM
same,TGI,HOP-62 NSCLC,11.2 µM
same,GI50,MOLT-4 leukemia,1.92 µM
same,TGI,MOLT-4 leukemia,6.59 µM
same,GI50,NCI-H23 lung,1.2 µM
same,TGI,NCI-H23 lung,3.95 µM
same,GI50,MCF7 breast,1.01 µM
same,TGI,MCF7 breast,2.91 µM
same,GI50,SN12C renal,2.02 µM
same,TGI,SN12C renal,5.27 µM
same,GI50,HT29 colon,24.7 µM
same,TGI,HT29 colon,> 100 µM
same,GI50,BT-549 breast,1.41 µM
same,TGI,BT-549 breast,2.79 µM
same,GI50,OVCAR-8 ovarian,2.27 µM
same,TGI,OVCAR-8 ovarian,6.32 µM
same,GI50,MDA-MB-435,1.8 µM
same,TGI,MDA-MB-435,3.76 µM
same,GI50,T-47D breast,0.975 µM
same,TGI,T-47D breast,3.22 µM
same,GI50,SK-MEL-2 melanoma,2.54 µM
same,TGI,SK-MEL-2 melanoma,6.57 µM

# From PubChem BioAssay (NCI)
